Test results as given in patent publication US8729034B2, “Pharmaceutical composition having virucidal and spermicidal activity” (priority 2007, dated 2014).

Tested on: human sperm
Assay: Live/dead staining (SYBR-14 / propidium iodide) of treated sperm
Type: cell-based
Protocol: Live/dead staining kit (Invitrogen: Paisley, UK), using SYBR-14 in combination with propidium iodide (PI) was used for the purpose.
The SYBR-14 was prepared in anhydrous methyl sulfoxide (DMSO) at a concentration of 1 mg/ml. A working solution of SYBR-14 diluted 1:10 with DMSO was used for staining the sperm. The PI was dissolved in Tyrode's salt solution at 2 mg/ml.
The human sperm samples, pre-treated without (control) or with Ac-B (experimental) and Nonoxynol 9 (positive control) were incubated for 15 min at 36 degree C. before examination. […] The fluorescent staining of sperm was monitored and photographed with a Zeiss Axiophot epifluorescent microscope (Carl Zeiss Inc., Thornwood, N.Y.) equipped with a fluorescein isothiocyanate filter set (Zeiss #487909).
Viability of Ac-B-treated human spermatozoa was evaluated using a dual fluorescent live/dead staining kit (Invitrogen; Paisley, UK) consisting of SYBR 14 and propidium iodide (PI). PI cannot penetrate living cells but can bind to and stain cellular DNA in damaged cells giving them red fluorescence. On completion of staining reaction, proportionate distribution of green (live) and red (dead) stained spermatozoa was recorded using dual emission filter for SYBR14 and propidium iodide. In the control set all sperms were stained green but the Ac-B-treated spermatozoa (125 mcg/ml) were stained red.

With Acaciaside-B [Ac-B] as the substance, how does the “Live/dead staining colour of treated spermatozoa” value (Ac-B 125 mcg/ml, green = live, red = dead) read?
Its value is “stained red”.

And the “Percentage of dead spermatozoa, Live/dead staining” value (human sperm pre-treated with Ac-B)?
Its value is 92 (±5)%.
